ChEMBL document CHEMBL4304832, “Novel Pyrazole-Containing Compounds Active against Mycobacterium tuberculosis” (ACS Med Chem Lett, 2019)
Converted amounts (≈) assume the structure as drawn.

Tests used:
[1] = tested on: Mycobacterium tuberculosis; assay: Antitubercular activity against Mycobacterium tuberculosis H37Rv incubated for 6 days by resazurin dye based fluorescence assay; assay type: functional; conditions: 144 h
[2] = Cytotoxicity against human HepG2 cells incubated for 48 hrs by CellTiter Glo assay; assay type: cell-based
[3] = Protection Index, ratio of CC50 for human HepG2 cells to MIC for Mycobacterium tuberculosis H37Rv; assay type: toxicity; conditions: read-out: PI
[4] = Chromatographic lipophilicity, log D of compound in PBS ay pH 7.4 by UV-HPLC analysis; assay type: physicochemical; conditions: for chromatographic logD: PBS
[5] = Permeability of the compound in pH 7.05 phosphate buffer incubated for 3 hrs by artificial membrane permeability assay based LCMS analysis; assay type: ADME; conditions: PAMPA, read-out: permeability
Albumin = Albumin (Homo sapiens, UniProt P02768); assay: Binding affinity to HSA by HPLC analysis; assay type: ADME; conditions: isolated protein
Albumin, sequence (P02768 whole entry): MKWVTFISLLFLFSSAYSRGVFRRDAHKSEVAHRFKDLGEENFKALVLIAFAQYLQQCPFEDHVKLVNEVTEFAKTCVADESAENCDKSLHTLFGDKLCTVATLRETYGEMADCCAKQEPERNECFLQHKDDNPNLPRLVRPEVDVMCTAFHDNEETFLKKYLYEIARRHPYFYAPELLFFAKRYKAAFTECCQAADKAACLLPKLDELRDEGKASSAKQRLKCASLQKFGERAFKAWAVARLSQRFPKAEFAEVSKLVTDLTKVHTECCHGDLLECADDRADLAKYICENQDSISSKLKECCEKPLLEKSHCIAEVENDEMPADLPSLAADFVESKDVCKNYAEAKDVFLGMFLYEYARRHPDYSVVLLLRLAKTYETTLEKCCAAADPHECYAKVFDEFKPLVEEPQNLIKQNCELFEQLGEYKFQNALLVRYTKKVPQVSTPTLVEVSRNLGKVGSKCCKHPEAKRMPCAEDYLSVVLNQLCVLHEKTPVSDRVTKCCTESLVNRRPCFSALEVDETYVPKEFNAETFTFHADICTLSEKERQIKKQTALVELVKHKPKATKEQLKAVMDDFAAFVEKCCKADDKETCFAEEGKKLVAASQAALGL

[6] = Kinetic solubility of the compound in pH 7.4 phosphate buffered saline; assay type: physicochemical; conditions: read-out: Kinetic_solubility
[7] = molecular target: Voltage-gated inwardly rectifying potassium channel KCNH2 (Homo sapiens, UniProt Q12809); assay: Inhibition of human ERG
Voltage-gated inwardly rectifying potassium channel KCNH2, sequence (Q12809 whole entry): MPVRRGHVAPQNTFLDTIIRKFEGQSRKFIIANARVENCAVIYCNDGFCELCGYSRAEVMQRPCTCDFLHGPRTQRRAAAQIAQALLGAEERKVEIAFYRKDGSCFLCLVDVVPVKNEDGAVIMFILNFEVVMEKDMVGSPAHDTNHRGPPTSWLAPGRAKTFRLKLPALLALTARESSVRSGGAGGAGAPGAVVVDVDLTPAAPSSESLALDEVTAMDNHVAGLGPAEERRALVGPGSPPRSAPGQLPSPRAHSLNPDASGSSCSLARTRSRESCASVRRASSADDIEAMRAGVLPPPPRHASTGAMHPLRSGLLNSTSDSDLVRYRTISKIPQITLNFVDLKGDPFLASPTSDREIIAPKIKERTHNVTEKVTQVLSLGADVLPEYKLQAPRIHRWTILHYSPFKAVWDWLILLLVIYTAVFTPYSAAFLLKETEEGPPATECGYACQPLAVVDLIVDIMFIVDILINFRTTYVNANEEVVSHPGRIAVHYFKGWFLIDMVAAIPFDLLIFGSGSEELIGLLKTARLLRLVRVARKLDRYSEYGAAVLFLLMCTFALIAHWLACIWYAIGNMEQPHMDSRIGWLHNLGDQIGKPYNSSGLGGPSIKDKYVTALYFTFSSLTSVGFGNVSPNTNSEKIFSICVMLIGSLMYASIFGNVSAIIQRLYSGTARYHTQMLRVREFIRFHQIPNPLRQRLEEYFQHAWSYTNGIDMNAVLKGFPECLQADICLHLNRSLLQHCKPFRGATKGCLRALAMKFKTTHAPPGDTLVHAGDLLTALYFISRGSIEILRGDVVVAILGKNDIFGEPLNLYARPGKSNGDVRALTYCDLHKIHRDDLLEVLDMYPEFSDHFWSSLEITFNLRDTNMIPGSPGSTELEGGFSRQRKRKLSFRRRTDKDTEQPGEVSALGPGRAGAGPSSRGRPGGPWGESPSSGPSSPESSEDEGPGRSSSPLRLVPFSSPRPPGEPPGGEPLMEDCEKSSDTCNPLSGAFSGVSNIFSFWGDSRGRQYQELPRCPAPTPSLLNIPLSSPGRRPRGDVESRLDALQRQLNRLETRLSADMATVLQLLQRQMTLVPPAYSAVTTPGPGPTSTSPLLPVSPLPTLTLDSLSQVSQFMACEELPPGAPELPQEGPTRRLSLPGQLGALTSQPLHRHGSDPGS

[8] = Solubility of the compound in FASSIF at 1 mg incubated for 4 hrs by UPLC-MS analysis; assay type: physicochemical
[9] = tested on: Mycobacterium tuberculosis; assay: Antitubercular activity against Mycobacterium tuberculosis H37Rv infected in C57BL/6 mouse assessed as reduction in bacterial load in lungs at 200 mg/kg administered once daily starting from 5 days post infection for 4 consecutive days and measured on day 9; assay type: functional
[10] = Intrinsic clearance in human liver microsomes at 0.5 uM measured up to 30 mins in presence of NADPH by UPLC/MS/MS analysis; assay type: ADME, Microsome; conditions: 0.5 h

Structure (SMILES) | MIC [1] | CC50 at 48 h [2] | selectivity ratio [3] | other results
FC(F)(F)c1ccc(-c2cc(CN3CCN(c4ccccn4)CC3)nn2C2CCCCC2)cc1 | 1 µM (≈ 0.47 µg/mL) | 50 µM | 50 | 
Cc1c(CN2CCOCC2)nc(-c2ccc(C(C)C)cc2)n1-c1ccc(F)cc1 | 40 µM (≈ 15.7 µg/mL) | 50.1 µM | 1.25 | 
FC(F)(F)c1ccc(-c2cc(CN3CCSCC3)nn2C2CCCCC2)cc1 | 1.2 µM (≈ 0.491 µg/mL) | 63.1 µM | 53 | 
COC1CCN(Cc2cc(-c3ccc(C)nc3)n(C3CCCCC3)n2)CC1 | 50 µM (≈ 18.4 µg/mL) | > 100 µM | > 2 | 
Cc1ccc(-c2cc(CN3CCOCC3)nn2C2CCCCC2)cn1 | 50 µM (≈ 17 µg/mL) | > 100 µM | > 2 | 
CC(C)c1ccc(-c2cc(CN3CCC(O)CC3)nn2C2CCCCC2)cc1 | 42 µM (≈ 16 µg/mL) | 63 µM | 1.5 | 
Cc1c(CN2CCOCC2)nn(-c2ccc(C(C)C)cc2)c1-c1ccc(F)cc1 | 50 µM (≈ 19.7 µg/mL) | > 100 µM | > 2 | 
COC1CCN(Cc2cc(-c3ccc(C(F)(F)F)cc3)n(C(C)C)n2)CC1 | 2.5 µM (≈ 0.954 µg/mL) | 79.4 µM | 32 | 
COC1CCN(Cc2cc(-c3ccc(C(C)C)cc3)n(C3CCCOC3)n2)CC1 (stereo not drawn) | 2.5 µM (≈ 0.994 µg/mL) | 50 µM | 20 | 
CC(C)c1ccc(-c2cc(CN3CCN(c4ccccn4)CC3)nn2C2CCCCC2)cc1 | 0.5 µM (≈ 0.222 µg/mL) | 40 µM | 80 | logD ([4]; buffer): 9.83; Papp at 3 h [5]: < 0.3 ×10⁻⁶ cm/s; Activity (Albumin): 98.41%; solubility kinetic [6]: 15 µM (≈ 6.65 µg/mL); IC50 [7]: > 50 µM
CC(C)(C)OC(=O)N1CCN(Cc2cc(-c3ccc(C(F)(F)F)cc3)n(C3CCCCC3)n2)CC1 | 2 µM (≈ 0.985 µg/mL) | > 100 µM | > 50 | 
CC(C)c1ccc(-c2cc(CN3CCOCC3)nn2C2CCC2)cc1 | 0.4 µM (≈ 0.136 µg/mL) | 50 µM | 125 | chromatographic logD [4]: 7.37; Papp at 3 h [5]: 61 ×10⁻⁶ cm/s; Activity (Albumin): 96.72%; solubility kinetic [6]: 305 to 306 µM; solubility at 4 h [8]: 139 µg/mL (≈ 409 µM); IC50 [7]: 32 µM; Activity [9]: 0.3 log10CFU; CLH [10]: 2.8 mL/min/g
COC1CCCN(Cc2cc(-c3ccc(C(C)C)cc3)n(-c3ccc(F)cc3)n2)C1 (stereo not drawn) | 2.4 µM (≈ 0.978 µg/mL) | 32 µM | 13 | 
COC1CCN(Cc2cc(-c3ccc(C(C)C)cc3)n(C3CCCCC3)n2)CC1 | 0.6 µM (≈ 0.237 µg/mL) | 12.6 µM | 21 | 
CC(C)c1ccc(-c2cc(CN3CCOCC3)nn2C2CCCCC2)cc1 | 0.4 µM (≈ 0.147 µg/mL) | 63.1 µM | 158 | chromatographic logD [4]: 8.29; Papp at 3 h [5]: 35 ×10⁻⁶ cm/s; Activity (Albumin): 97.11%; solubility kinetic [6]: 78.5 µM (≈ 28.9 µg/mL); solubility at 4 h [8]: 100 µg/mL (≈ 272 µM); IC50 [7]: > 50 µM; Activity [9]: 0.4 log10CFU; CLH [10]: 3.4 mL/min/g
CC(C)(C)OC(=O)N1CCN(Cc2cc(-c3ccc(C(F)(F)F)cc3)n(-c3ccc(F)cc3)n2)CC1 | 4 µM (≈ 2.02 µg/mL) | > 100 µM | > 25 | 
Fc1ccc(-n2nc(CN3CCSCC3)cc2-c2ccc(C(F)(F)F)cc2)cc1 | 4.7 µM (≈ 1.98 µg/mL) | 79.4 µM | 17 | 
Fc1ccc(-n2nc(CN3CCOCC3)cc2-c2ccc(C(F)(F)F)cc2)cc1 | 20 µM (≈ 8.11 µg/mL) | 100 µM | 5 | 
COC1CCN(Cc2cc(C)n(C3CCCCC3)n2)CC1 | 50 µM (≈ 14.6 µg/mL) | > 100 µM | > 2 | 
COC1CCN(Cc2cc(-c3ccc(C(F)(F)F)cc3)n(-c3ccc(F)cc3)n2)CC1 | 0.3 µM (≈ 0.13 µg/mL) | 31.6 µM | 105 | chromatographic logD [4]: 6.67; Papp at 3 h [5]: 17 ×10⁻⁶ cm/s; Activity (Albumin): 96.47%; solubility kinetic [6]: 258 µM (≈ 112 µg/mL); IC50 [7]: 3.2 µM
CC(C)c1ccc(-c2cc(CN3CCSCC3)nn2C2CCCCC2)cc1 | 1.3 µM (≈ 0.499 µg/mL) | 40 µM | 31 | 
CC(C)c1ccc(-c2cc(CN3CCCC(O)C3)nn2C(C)C)cc1 (stereo not drawn) | 1 µM (≈ 0.341 µg/mL) | 50 µM | 50 | 
CC(C)c1ccc(-c2cc(CN3CCNCC3)nn2C2CCCCC2)cc1 | 20 µM (≈ 7.33 µg/mL) |  |  | 
CC(C)c1ccc(-c2cc(CN3CCC(O)CC3)nn2-c2ccc(F)cc2)cc1 | 10 µM (≈ 3.94 µg/mL) | 20 µM | 2 | 
C[Si]1(C)CCN(Cc2cc(-c3ccc(C(F)(F)F)cc3)n(C3CCCCC3)n2)CC1 | 0.07 µM (≈ 0.0305 µg/mL) | 12.6 µM | 180 | chromatographic logD [4]: 8.49; Activity (Albumin): 96.32%; solubility kinetic [6]: 69 µM (≈ 30.1 µg/mL); IC50 [7]: 2.5 µM
